According to paper doi:10.1101/2021.04.08.439011v1 (biorxiv, 2021):

What was measured:
Test in all cases: biochemical
Settings in all cases: read-out: Residual activity
[1] = biological target: STK33 (Homo sapiens, UniProt Q9BYT3)
[2] = biological target: TTBK1 (Homo sapiens, UniProt Q5TCY1)
[3] = biological target: DYRK1B (Homo sapiens, UniProt Q9Y463)
[4] = biological target: LTK (Homo sapiens, UniProt P29376)
LTK, sequence (P29376 whole entry): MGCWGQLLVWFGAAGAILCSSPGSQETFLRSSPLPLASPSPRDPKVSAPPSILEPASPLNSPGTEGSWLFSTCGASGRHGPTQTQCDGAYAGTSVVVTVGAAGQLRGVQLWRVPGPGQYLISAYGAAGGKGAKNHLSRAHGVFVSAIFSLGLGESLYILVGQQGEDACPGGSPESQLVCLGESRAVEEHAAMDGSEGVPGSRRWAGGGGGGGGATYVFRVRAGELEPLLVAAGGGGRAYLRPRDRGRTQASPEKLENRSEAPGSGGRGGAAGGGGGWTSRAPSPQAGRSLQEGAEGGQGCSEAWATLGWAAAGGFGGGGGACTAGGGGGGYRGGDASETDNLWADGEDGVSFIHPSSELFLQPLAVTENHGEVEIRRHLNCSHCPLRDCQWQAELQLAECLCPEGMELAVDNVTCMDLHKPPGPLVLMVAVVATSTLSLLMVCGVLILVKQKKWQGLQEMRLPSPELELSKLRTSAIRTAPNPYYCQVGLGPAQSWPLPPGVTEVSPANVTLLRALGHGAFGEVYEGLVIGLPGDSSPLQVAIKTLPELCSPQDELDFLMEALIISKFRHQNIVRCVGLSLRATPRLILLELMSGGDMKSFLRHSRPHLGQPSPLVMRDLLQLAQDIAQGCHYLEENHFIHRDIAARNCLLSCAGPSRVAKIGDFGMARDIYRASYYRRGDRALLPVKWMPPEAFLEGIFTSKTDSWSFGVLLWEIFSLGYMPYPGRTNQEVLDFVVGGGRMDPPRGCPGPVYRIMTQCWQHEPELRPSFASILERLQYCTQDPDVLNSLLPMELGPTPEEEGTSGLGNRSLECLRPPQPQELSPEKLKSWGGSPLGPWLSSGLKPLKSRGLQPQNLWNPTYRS

STK33, sequence (Q9BYT3 whole entry): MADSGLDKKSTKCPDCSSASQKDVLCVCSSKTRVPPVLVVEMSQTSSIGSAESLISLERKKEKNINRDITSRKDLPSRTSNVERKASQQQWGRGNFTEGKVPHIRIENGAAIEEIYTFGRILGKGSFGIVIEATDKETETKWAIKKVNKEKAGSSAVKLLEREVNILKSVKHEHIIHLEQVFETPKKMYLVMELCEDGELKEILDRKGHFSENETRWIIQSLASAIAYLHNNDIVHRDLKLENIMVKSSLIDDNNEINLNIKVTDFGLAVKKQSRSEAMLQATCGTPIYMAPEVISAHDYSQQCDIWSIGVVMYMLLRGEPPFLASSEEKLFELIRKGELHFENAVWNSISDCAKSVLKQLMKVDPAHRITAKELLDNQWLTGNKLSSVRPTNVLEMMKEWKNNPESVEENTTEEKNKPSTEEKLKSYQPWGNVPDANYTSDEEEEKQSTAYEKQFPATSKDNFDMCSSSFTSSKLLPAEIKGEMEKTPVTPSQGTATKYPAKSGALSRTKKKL
DYRK1B, sequence (Q9Y463 whole entry): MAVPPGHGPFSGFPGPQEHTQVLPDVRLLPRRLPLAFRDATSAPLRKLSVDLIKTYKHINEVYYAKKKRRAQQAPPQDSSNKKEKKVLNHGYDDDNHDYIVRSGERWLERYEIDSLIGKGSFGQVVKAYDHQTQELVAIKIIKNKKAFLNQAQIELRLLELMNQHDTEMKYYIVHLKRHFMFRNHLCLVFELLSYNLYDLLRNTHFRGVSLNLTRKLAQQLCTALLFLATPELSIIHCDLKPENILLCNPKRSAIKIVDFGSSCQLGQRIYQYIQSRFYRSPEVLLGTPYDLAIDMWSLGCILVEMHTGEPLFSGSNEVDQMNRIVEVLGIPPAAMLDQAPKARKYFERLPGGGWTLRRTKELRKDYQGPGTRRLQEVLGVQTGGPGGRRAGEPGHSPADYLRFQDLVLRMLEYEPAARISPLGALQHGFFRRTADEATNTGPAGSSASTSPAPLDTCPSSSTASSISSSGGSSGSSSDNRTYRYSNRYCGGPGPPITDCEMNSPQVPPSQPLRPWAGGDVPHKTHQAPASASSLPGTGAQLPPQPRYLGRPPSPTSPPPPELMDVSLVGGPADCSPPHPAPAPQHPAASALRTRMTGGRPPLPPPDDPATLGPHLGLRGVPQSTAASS
TTBK1, sequence (Q5TCY1 whole entry): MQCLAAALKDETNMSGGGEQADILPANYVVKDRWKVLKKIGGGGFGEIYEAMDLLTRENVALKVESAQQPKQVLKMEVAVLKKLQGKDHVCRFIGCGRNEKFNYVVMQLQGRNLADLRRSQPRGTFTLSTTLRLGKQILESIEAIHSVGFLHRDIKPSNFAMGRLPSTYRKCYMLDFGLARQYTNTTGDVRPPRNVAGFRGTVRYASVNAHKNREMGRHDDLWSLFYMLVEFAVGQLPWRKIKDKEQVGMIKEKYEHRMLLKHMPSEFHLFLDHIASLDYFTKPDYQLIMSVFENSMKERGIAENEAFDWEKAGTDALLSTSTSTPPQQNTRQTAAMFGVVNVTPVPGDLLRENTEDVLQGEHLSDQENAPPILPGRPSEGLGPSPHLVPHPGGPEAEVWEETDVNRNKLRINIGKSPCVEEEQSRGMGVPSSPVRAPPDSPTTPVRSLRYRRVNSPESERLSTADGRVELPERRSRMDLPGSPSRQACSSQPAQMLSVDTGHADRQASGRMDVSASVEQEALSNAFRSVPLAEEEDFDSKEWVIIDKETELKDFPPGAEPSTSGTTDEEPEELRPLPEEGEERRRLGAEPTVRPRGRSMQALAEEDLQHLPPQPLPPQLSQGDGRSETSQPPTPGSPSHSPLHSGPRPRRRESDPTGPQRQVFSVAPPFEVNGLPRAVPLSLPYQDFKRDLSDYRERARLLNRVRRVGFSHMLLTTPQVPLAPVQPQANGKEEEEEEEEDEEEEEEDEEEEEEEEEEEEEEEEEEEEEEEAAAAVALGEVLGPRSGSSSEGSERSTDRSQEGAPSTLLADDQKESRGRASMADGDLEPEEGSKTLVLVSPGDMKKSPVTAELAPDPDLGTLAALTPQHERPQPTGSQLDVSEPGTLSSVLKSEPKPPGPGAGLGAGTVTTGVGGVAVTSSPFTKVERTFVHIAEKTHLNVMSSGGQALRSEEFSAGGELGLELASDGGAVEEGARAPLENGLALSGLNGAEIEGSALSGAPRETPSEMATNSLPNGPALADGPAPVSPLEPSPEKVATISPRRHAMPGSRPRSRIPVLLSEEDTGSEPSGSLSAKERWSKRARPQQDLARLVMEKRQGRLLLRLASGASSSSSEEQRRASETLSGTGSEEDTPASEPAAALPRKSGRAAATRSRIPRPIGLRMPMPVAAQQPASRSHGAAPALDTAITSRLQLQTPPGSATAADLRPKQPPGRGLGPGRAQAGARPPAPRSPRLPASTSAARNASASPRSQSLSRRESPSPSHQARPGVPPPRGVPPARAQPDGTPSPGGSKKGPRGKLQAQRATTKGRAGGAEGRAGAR

- remaining activity at 1 µM [1]: 89%
- remaining activity at 1 µM [2]: 131%
- remaining activity at 1 µM [3]: 98%
- remaining activity at 1 µM [4]: 105%
Structure (SMILES): CNc1ncc2cc(-c3ccc(-c4ncccc4F)cc3Cl)c(=O)n(CC3OCC(N)CO3)c2n1 (stereo not shown) [compound 10, 8-(((2r,5r)-5-Amino-1,3-dioxan-2-yl)methyl)-6-(2-chloro-4-(3-fluoropyridin-2-yl)phenyl)-2-(methylamino)pyrido[2,3-d]pyrimidin-7(8H)-one]
